Results: US5338758A (Schering Corporation, priority 1992, dated 1994)
pIC50: −log10 of the molar value.

Tests used:
[1] = tested on: PAF; settings: disclosed in JP 03,216,197; cited from earlier work
[2] = tested on: PAF-Induced Human Platelet Aggregation; assay: PAF-induced human platelet aggregation assay (in vitro PAF antagonism); assay type: cell-based; settings: for pIC50: human platelet-rich plasma, 37° C., 2 min preincubation, PAF 1-5×10^-8 M, 0.1% DMSO, read-out: IC50 (PAF activity, inhibition of PAF-induced human platelet aggregation)
Description: Preparation of Platelet-Rich Plasma (PRP): Human blood (50 ml) is collected from healthy male donors. The blood is mixed with an anticoagulant solution (5 ml) containing sodium citrate (3.8%) and dextrose (2%). Blood is centrifuged at 200×g for 20 min. and the supernatant PRP is carefully transferred into a polypropylene tube. Platelet-poor-plasma (PPP) is prepared by centrifuging PRP at 800×g for 15 min. in a Beckman Microfuge B. PRP is used within 3 hours of drawing the blood.
Platelet Aggregation Assay: When an aggregating agent such as PAF is added to PRP, platelets aggregate. An aggregometer quantifies this aggregation by measuring light (infra-red) transmission through PRP and comparing it to transmission through PPP. The aggregation assays are performed using a dual-channel aggregometer (Model 440, Chrono-Log Corp., Havertown, Pa.). PRP (0.45 ml) in aggregometer curettes is continually stirred (37° C.). Solutions of test compounds in DMSO or vehicle alone (final concentration of DMSO=0.1% v/v) are added to the PRP, and, after incubation for 2 min., 10- 15 μl aliquots of PAF solution are added so as to achieve a final concentration of 1-5×10^-8 M. Incubations are continued until the increase in light transmission reaches a maximum (usually about 2 min). Values for inhibition are calculated by comparing maximal aggregation obtained in the absence and the presence of the compound. […]

[3] = Solubility; assay type: physicochemical

pIC50 [2] | solubility in acetone [3] | solubility in chloroform [3] | solubility in dichloromethane [3] | solubility in dimethyl sulfoxide [3] | solubility in ethyl acetate [3] | solubility in hexane [3] | solubility in methanol [3] | solubility in water [3] | solubility in petroleum ether [3] | SMILES | PAF antagonist activity (in words) [1] | PAF antagonistic properties (in words) [2]
 |  |  |  |  |  |  |  |  |  | CC1=CCCC2(C)OC2C(=O)C2=CC(O)C(C)C(C)(CC1)C2(C)O (centres unmarked) [Phomactin B, phomactin B] | PAF antagonist | 
< 4.44 | soluble | soluble | soluble | partially soluble | partially soluble | partially soluble | partially soluble | insoluble |  | CC1=CCC2=CCC(C)C(C)(CCC(C)=CCC1)C2C (centres unmarked) [Compound IV] |  | antagonistic properties
5.16 | partially soluble | soluble | soluble | soluble | partially soluble | insoluble | partially soluble | insoluble | insoluble | C/C1=C\CCC2(C)O[C@H]2C(=O)C2=CC[C@H](C)[C@@](C)(CC1)[C@@H]2C=O (relative stereo) [Compound I] |  | antagonistic properties
5.77 | partially soluble | soluble | soluble | soluble | partially soluble | insoluble | partially soluble | insoluble | insoluble | CC1=CCCC2(C)OC2C2(O)OCC3C2=C(O)CC(C)C3(C)CC1 (centres unmarked) [II] |  | antagonistic properties
5.90 | partially soluble | soluble | soluble | soluble | partially soluble | insoluble | partially soluble | insoluble | insoluble | CC1=CCCC2(C)OC2C2(O)OCC3=C2C(O)CC(C)C3(C)CC1 (centres unmarked) [III] |  | antagonistic properties
